Measurements published in the NIST ThermoML archive (doi:10.1016/j.jct.2016.05.017).
“And” between values parts separate entries of the source, which are not always exact repeats. Identical values can stand only once. Numbers after ± are expanded uncertainties.

Experiments:
[1] = for vapor or sublimation pressure: Transpiration method; for Triple point temperature: DSC
[2] = Molar enthalpy of transition or fusion; conditions: Crystal; DSC

SMILES: CC(=O)C12CC3CC(CC(C3)C1)C2 [1-adamantyl methyl ketone]
- vapor or sublimation pressure ([1]; 291.6 K, Crystal): 0.00076 ± 5e-05 kPa
- vapor or sublimation pressure ([1]; 293.7 K, Crystal): 0.00099 ± 7e-05 kPa
- vapor or sublimation pressure ([1]; 296.5 K, Crystal): 0.00136 ± 0.0001 kPa
- vapor or sublimation pressure ([1]; 298.4 K, Crystal): 0.00174 ± 0.00013 kPa
- vapor or sublimation pressure ([1]; 303.3 K, Crystal): 0.00299 ± 0.0002 kPa
- vapor or sublimation pressure ([1]; 308.2 K, Crystal): 0.00505 ± 0.00033 kPa
- vapor or sublimation pressure ([1]; 308.4 K, Crystal): 0.00506 ± 0.00033 kPa
- vapor or sublimation pressure ([1]; 313.2 K, Crystal): 0.0085 ± 0.00059 kPa
- vapor or sublimation pressure ([1]; 316.2 K, Crystal): 0.01174 ± 0.00079 kPa
- vapor or sublimation pressure ([1]; 318.2 K, Crystal): 0.01406 ± 0.00094 kPa
- vapor or sublimation pressure ([1]; 318.7 K, Crystal): 0.01511 ± 0.001 kPa
- vapor or sublimation pressure ([1]; 320.3 K, Crystal): 0.01713 ± 0.0011 kPa
- vapor or sublimation pressure ([1]; 323.3 K, Crystal): 0.02368 ± 0.0016 kPa
- vapor or sublimation pressure ([1]; 331.3 K, Liquid): 0.0399 ± 0.0025 kPa and 0.0404 ± 0.0025 kPa
- vapor or sublimation pressure ([1]; 333.2 K, Liquid): 0.04637 ± 0.003 kPa and 0.0468 ± 0.003 kPa
- vapor or sublimation pressure ([1]; 335.2 K, Liquid): 0.0516 ± 0.0032 kPa
- vapor or sublimation pressure ([1]; 338.2 K, Liquid): 0.0633 ± 0.004 kPa
- vapor or sublimation pressure ([1]; 341.2 K, Liquid): 0.0767 ± 0.0048 kPa
- vapor or sublimation pressure ([1]; 343.1 K, Liquid): 0.08701 ± 0.0055 kPa
- vapor or sublimation pressure ([1]; 346.2 K, Liquid): 0.1025 ± 0.0065 kPa
- vapor or sublimation pressure ([1]; 348.1 K, Liquid): 0.1221 ± 0.0077 kPa
- vapor or sublimation pressure ([1]; 348.3 K, Liquid): 0.1231 ± 0.0077 kPa
- vapor or sublimation pressure ([1]; 351.7 K, Liquid): 0.1433 ± 0.0097 kPa
- vapor or sublimation pressure ([1]; 352.1 K, Liquid): 0.1514 ± 0.0095 kPa
- vapor or sublimation pressure ([1]; 353.1 K, Liquid): 0.1567 ± 0.0098 kPa
- vapor or sublimation pressure ([1]; 355.5 K, Liquid): 0.1853 ± 0.012 kPa
- vapor or sublimation pressure ([1]; 356 K, Liquid): 0.1912 ± 0.012 kPa
- vapor or sublimation pressure ([1]; 358.1 K, Liquid): 0.2111 ± 0.013 kPa
- vapor or sublimation pressure ([1]; 358.2 K, Liquid): 0.2186 ± 0.014 kPa
- vapor or sublimation pressure ([1]; 360.4 K, Liquid): 0.2451 ± 0.015 kPa
- vapor or sublimation pressure ([1]; 363.1 K, Liquid): 0.2835 ± 0.018 kPa
- Triple point temperature ([1]; Crystal): 325.2 ± 1.2 K
- Molar enthalpy of transition or fusion [2]: 4.66 ± 0.167 kcal/mol

SMILES: O=C1C2CC3CC(C2)CC1C3 [2-adamantanone]
- vapor or sublimation pressure ([1]; 293.5 K, Crystal): 0.00109 ± 8e-05 kPa
- vapor or sublimation pressure ([1]; 296.4 K, Crystal): 0.00142 ± 0.0001 kPa
- vapor or sublimation pressure ([1]; 297.4 K, Crystal): 0.00156 ± 0.0001 kPa
- vapor or sublimation pressure ([1]; 298.5 K, Crystal): 0.00172 ± 0.00012 kPa
- vapor or sublimation pressure ([1]; 300.4 K, Crystal): 0.00199 ± 0.00013 kPa
- vapor or sublimation pressure ([1]; 303.4 K, Crystal): 0.00258 ± 0.00017 kPa
- vapor or sublimation pressure ([1]; 306.4 K, Crystal): 0.00341 ± 0.00023 kPa
- vapor or sublimation pressure ([1]; 308.4 K, Crystal): 0.00417 ± 0.00028 kPa
- vapor or sublimation pressure ([1]; 313.4 K, Crystal): 0.00608 ± 0.00043 kPa
- vapor or sublimation pressure ([1]; 318.4 K, Crystal): 0.00903 ± 0.00061 kPa
- vapor or sublimation pressure ([1]; 323.4 K, Crystal): 0.01275 ± 0.00084 kPa
- vapor or sublimation pressure ([1]; 328.4 K, Crystal): 0.01873 ± 0.0012 kPa
- vapor or sublimation pressure ([1]; 333.4 K, Crystal): 0.02597 ± 0.0017 kPa
- vapor or sublimation pressure ([1]; 338.5 K, Crystal): 0.03782 ± 0.0024 kPa
- vapor or sublimation pressure ([1]; 343.3 K, Crystal): 0.05432 ± 0.0034 kPa
- vapor or sublimation pressure ([1]; 348.4 K, Crystal): 0.07513 ± 0.0047 kPa
- vapor or sublimation pressure ([1]; 353.3 K, Crystal): 0.09857 ± 0.0062 kPa
- vapor or sublimation pressure ([1]; 358.3 K, Crystal): 0.1302 ± 0.0082 kPa
- vapor or sublimation pressure ([1]; 363.4 K, Crystal): 0.1815 ± 0.011 kPa
- vapor or sublimation pressure ([1]; 368.4 K, Crystal): 0.2462 ± 0.015 kPa
- vapor or sublimation pressure ([1]; 373.4 K, Crystal): 0.3099 ± 0.019 kPa

SMILES: O=C(O)C1C2CC3CC(C2)CC1C3 (stereo not given) [adamantane-2-carboxylic acid]
- vapor or sublimation pressure ([1]; 344.3 K, Crystal): 0.00066 ± 5e-05 kPa
- vapor or sublimation pressure ([1]; 347.3 K, Crystal): 0.00087 ± 7e-05 kPa
- vapor or sublimation pressure ([1]; 350.3 K, Crystal): 0.00113 ± 8e-05 kPa
- vapor or sublimation pressure ([1]; 353.4 K, Crystal): 0.00157 ± 0.0001 kPa
- vapor or sublimation pressure ([1]; 355.4 K, Crystal): 0.0018 ± 0.00012 kPa
- vapor or sublimation pressure ([1]; 356.4 K, Crystal): 0.00212 ± 0.00015 kPa
- vapor or sublimation pressure ([1]; 358.4 K, Crystal): 0.00246 ± 0.00017 kPa
- vapor or sublimation pressure ([1]; 360.4 K, Crystal): 0.00307 ± 0.0002 kPa
- vapor or sublimation pressure ([1]; 362.4 K, Crystal): 0.00345 ± 0.00023 kPa
- vapor or sublimation pressure ([1]; 364.4 K, Crystal): 0.00436 ± 0.00028 kPa
- vapor or sublimation pressure ([1]; 365.8 K, Crystal): 0.0048 ± 0.00032 kPa
- vapor or sublimation pressure ([1]; 368.3 K, Crystal): 0.00577 ± 0.0004 kPa
- vapor or sublimation pressure ([1]; 368.4 K, Crystal): 0.00595 ± 0.00041 kPa
- vapor or sublimation pressure ([1]; 369.4 K, Crystal): 0.00628 ± 0.00044 kPa
- vapor or sublimation pressure ([1]; 370.4 K, Crystal): 0.00725 ± 0.00051 kPa
- vapor or sublimation pressure ([1]; 371.4 K, Crystal): 0.00757 ± 0.00052 kPa
- vapor or sublimation pressure ([1]; 373.4 K, Crystal): 0.00923 ± 0.00063 kPa
- vapor or sublimation pressure ([1]; 374.4 K, Crystal): 0.00992 ± 0.00067 kPa
- vapor or sublimation pressure ([1]; 376.4 K, Crystal): 0.01193 ± 0.00079 kPa
- vapor or sublimation pressure ([1]; 377.4 K, Crystal): 0.01257 ± 0.00083 kPa and 0.01301 ± 0.00086 kPa
- vapor or sublimation pressure ([1]; 378.4 K, Crystal): 0.01382 ± 0.00091 kPa
- vapor or sublimation pressure ([1]; 380.3 K, Crystal): 0.01584 ± 0.001 kPa
- vapor or sublimation pressure ([1]; 381.3 K, Crystal): 0.01701 ± 0.0011 kPa
- vapor or sublimation pressure ([1]; 383.4 K, Crystal): 0.02003 ± 0.0013 kPa
- vapor or sublimation pressure ([1]; 386.4 K, Crystal): 0.02497 ± 0.0016 kPa
- Triple point temperature ([1]; Crystal): 416.3 ± 1.2 K
- Molar enthalpy of transition or fusion [2]: 2.34 ± 0.239 kcal/mol

SMILES: O=C(O)C12CC3CC(CC(C3)C1)C2 [tricyclo[3.3.1.1(3,7)]decane-1-carboxylic acid]
- vapor or sublimation pressure ([1]; 345.2 K, Crystal): 0.0009 ± 7e-05 kPa
- vapor or sublimation pressure ([1]; 348.2 K, Crystal): 0.00122 ± 9e-05 kPa
- vapor or sublimation pressure ([1]; 353.2 K, Crystal): 0.00193 ± 0.00013 kPa
- vapor or sublimation pressure ([1]; 356.7 K, Crystal): 0.00266 ± 0.00018 kPa
- vapor or sublimation pressure ([1]; 360.2 K, Crystal): 0.00382 ± 0.00025 kPa
- vapor or sublimation pressure ([1]; 362.2 K, Crystal): 0.00453 ± 0.0003 kPa
- vapor or sublimation pressure ([1]; 365.2 K, Crystal): 0.00575 ± 0.00037 kPa
- vapor or sublimation pressure ([1]; 367.7 K, Crystal): 0.00692 ± 0.00049 kPa
- vapor or sublimation pressure ([1]; 370.2 K, Crystal): 0.00896 ± 0.00061 kPa
- vapor or sublimation pressure ([1]; 370.3 K, Crystal): 0.00895 ± 0.00061 kPa
- vapor or sublimation pressure ([1]; 373.2 K, Crystal): 0.01102 ± 0.00073 kPa
- vapor or sublimation pressure ([1]; 375.2 K, Crystal): 0.01263 ± 0.00084 kPa
- vapor or sublimation pressure ([1]; 377.3 K, Crystal): 0.01524 ± 0.001 kPa
- vapor or sublimation pressure ([1]; 377.7 K, Crystal): 0.01587 ± 0.0011 kPa
- vapor or sublimation pressure ([1]; 380.2 K, Crystal): 0.01902 ± 0.0013 kPa
- vapor or sublimation pressure ([1]; 382.2 K, Crystal): 0.02303 ± 0.0015 kPa
- vapor or sublimation pressure ([1]; 385.3 K, Crystal): 0.02961 ± 0.0019 kPa
- Triple point temperature ([1]; Crystal): 449.1 ± 1.2 K
- Molar enthalpy of transition or fusion [2]: 4.21 ± 0.167 kcal/mol
